Biological target: sarco/endoplasmic reticulum calcium ATPase (SERCA) (Oryctolagus cuniculus, UniProt P04191)
Experiment: SERCA-catalyzed ATP hydrolysis, coupled PK/LDH NADH oxidation assay

sarco/endoplasmic reticulum calcium ATPase (SERCA), sequence (P04191 1-994 isoform P04191-2): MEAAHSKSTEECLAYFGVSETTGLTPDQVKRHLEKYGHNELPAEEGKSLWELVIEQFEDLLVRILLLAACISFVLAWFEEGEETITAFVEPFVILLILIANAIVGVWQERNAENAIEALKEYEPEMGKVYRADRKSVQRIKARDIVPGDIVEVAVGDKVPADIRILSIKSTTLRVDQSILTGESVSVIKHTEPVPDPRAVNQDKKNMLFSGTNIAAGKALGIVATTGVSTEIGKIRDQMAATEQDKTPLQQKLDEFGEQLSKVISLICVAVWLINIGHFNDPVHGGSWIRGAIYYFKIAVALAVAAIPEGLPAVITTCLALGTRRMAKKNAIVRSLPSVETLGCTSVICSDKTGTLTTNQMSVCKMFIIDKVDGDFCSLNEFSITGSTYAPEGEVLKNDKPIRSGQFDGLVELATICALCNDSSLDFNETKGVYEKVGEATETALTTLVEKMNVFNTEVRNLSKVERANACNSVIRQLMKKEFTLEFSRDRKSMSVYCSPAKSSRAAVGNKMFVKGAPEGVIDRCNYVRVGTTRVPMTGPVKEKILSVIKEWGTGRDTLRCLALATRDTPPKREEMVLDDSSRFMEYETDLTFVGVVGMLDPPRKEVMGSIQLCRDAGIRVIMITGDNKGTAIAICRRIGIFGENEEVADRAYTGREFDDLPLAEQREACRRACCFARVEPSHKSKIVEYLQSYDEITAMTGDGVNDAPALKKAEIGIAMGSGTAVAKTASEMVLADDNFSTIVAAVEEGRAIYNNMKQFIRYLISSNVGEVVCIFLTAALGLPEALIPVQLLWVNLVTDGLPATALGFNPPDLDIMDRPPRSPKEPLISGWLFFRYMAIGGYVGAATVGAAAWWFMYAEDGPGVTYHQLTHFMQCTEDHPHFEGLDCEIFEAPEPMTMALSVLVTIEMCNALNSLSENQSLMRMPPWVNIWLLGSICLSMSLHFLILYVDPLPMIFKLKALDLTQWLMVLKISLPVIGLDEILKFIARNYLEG

CC(C)(C)OC(=O)NCCCC(=O)Oc1cc(C(C)(C)C)c(OC(=O)CCCNC(=O)OC(C)(C)C)cc1C(C)(C)C [8a]
SERCA inhibition (activity in words): inactive

— paper PMC2752035 (Bioorganic & medicinal chemistry, 2009)
